From ChEMBL document CHEMBL4052616, “Isoniazid derivatives and their anti-tubercular activity” (Eur J Med Chem, 2017) come the findings set out here.

In brackets after ≈: the same amount, converted by molar mass.

Experiment [1] concerns Mycobacterium tuberculosis. The experiment can be described thus: Antimycobacterial activity against Mycobacterium tuberculosis H37Rv after 5 days by microplate alamar blue assay. In kind it is functional. Conditions: 120 h. Background: Resazurin is reduced to fluorescent resorufin, in cell work by metabolically active cells.
The test system of experiment [2] is Mycobacterium tuberculosis. Nature of the experiment: Antimycobacterial activity against Bovin sensitive Mycobacterium tuberculosis measured after six weeks. Type of experiment: functional.
Experiment [3] relates to Mycobacterium tuberculosis. The experiment can be described thus: Antimycobacterial activity against human sensitive Mycobacterium tuberculosis measured after six weeks. Type of experiment: functional.
Experiment [4] relates to Mycobacterium tuberculosis. Nature of the experiment: Antimycobacterial activity against Mycobacterium tuberculosis H37Rv ATCC 27294 at < 0.1 ug/mL by microplate alamar blue assay. In kind it is functional.
Experiment [5] concerns Mycobacterium tuberculosis. Nature of the experiment: Antitubercular activity against Mycobacterium tuberculosis H37Rv. Type of experiment: functional.
Experiment [6] deals with Mycobacterium tuberculosis. Nature of the experiment: Antimycobacterial activity against Mycobacterium tuberculosis H37Rv after 10 to 12 days by serial dilution method. Type of experiment: functional.
Experiment [7] can be described thus: Inhibition of DNA gyrase (unknown origin).
Experiment [8] concerns Mycobacterium tuberculosis. The experiment can be described thus: Antimycobacterial activity against Mycobacterium tuberculosis infected in C57BL/6 mouse assessed as colony forming units per lung at 25 mg/kg administered via gavage for 2 days measured last post dose (reference value: 6.53 +/- 0.16 log10CFU). In kind it is functional.
Experiment [9] relates to Mycobacterium tuberculosis. The experiment can be described thus: Antimycobacterial activity against Mycobacterium tuberculosis clinical isolate 303 by broth dilution method. Type of experiment: functional. In general terms: Dilution methods test growth across graded concentrations, often in twofold steps.
Experiment [10] relates to Mycobacterium tuberculosis. Nature of the experiment: Antimycobacterial activity against Mycobacterium tuberculosis clinical isolate 1889 by broth dilution method. In kind it is functional.
The test system of experiment [11] is Mycobacterium tuberculosis. Nature of the experiment: Antimycobacterial activity against Mycobacterium tuberculosis clinical isolate 35829 by broth dilution method. In kind it is functional.
The test system of experiment [12] is Mycobacterium tuberculosis. The experiment can be described thus: Antimycobacterial activity against Mycobacterium tuberculosis H37Rv ATCC 27294 measured after 5 to 8 days. In kind it is functional.
Experiment [13] deals with Mycobacterium tuberculosis. Nature of the experiment: Antimycobacterial activity against Mycobacterium tuberculosis H37Rv by serial dilution method. In kind it is functional.
The subject of experiment [14] is Mycobacterium tuberculosis. Nature of the experiment: Antimycobacterial activity against Mycobacterium tuberculosis H37Rv by NCCLS method. In kind it is functional.
The test system of experiment [15] is Mycobacterium tuberculosis. Nature of the experiment: Growth inhibition of Mycobacterium tuberculosis H37Rv ATCC 27294 measured after 5 to 8 days. Type of experiment: functional.
Experiment [16] deals with Mycobacterium tuberculosis. Nature of the experiment: Antimycobacterial activity against Mycobacterium tuberculosis Academia by serial dilution method. Type of experiment: functional.
The test system of experiment [17] is Mycobacterium tuberculosis. The experiment can be described thus: Potency index, ratio of pyrazinamide MIC to compound MIC for Mycobacterium tuberculosis H37Rv. Type of experiment: functional.
In a further experiment the test system is Mycobacterium kansasii. The experiment can be described thus: Antimycobacterial activity against Mycobacterium kansasii by serial dilution method. Type of experiment: functional.
A further experiment relates to Mycobacterium avium. Nature of the experiment: Antimycobacterial activity against Mycobacterium avium by serial dilution method. In kind it is functional.
For experiment [18], the system named is Mycobacterium intracellulare. The experiment can be described thus: Antimycobacterial activity against Mycobacterium intracellulare by serial dilution method. In kind it is functional.
Experiment [19] deals with Mycolicibacterium fortuitum. Nature of the experiment: Antimycobacterial activity against Mycobacterium fortuitum by serial dilution method. Type of experiment: functional.
The subject of experiment [20] is Mycolicibacterium smegmatis. The experiment can be described thus: Antimycobacterial activity against Mycobacterium smegmatis ATCC 607 by serial dilution method. In kind it is functional.
For the next experiment, the system named is Mycolicibacterium phlei. The experiment can be described thus: Antimycobacterial activity against Mycobacterium phlei by serial dilution method. Type of experiment: functional.

By MIC is commonly meant the lowest concentration that inhibits growth of the organism. Higher therefore signals a less susceptible organism. With `COc1cc(C2C(Cl)C(=O)N2NC(=O)c2ccncc2)ccc1O` (stereo not drawn), 0.31 µg/mL (≈ 0.891 µM) was the least that counted as inhibitory in experiment [1] (MIC).
`O=C(N/N=C1\C(=O)N(Cc2ccccc2)c2ccccc21)c1ccncc1`: the MIC in experiment [2] and in experiment [3] was 2.7 to 3.5 µg/mL (≈ 7.58 to 9.82 µM) in each case.
For the compound `C[C@]12CC=CC[C@@H]1CC[C@@H]1[C@@H]2CC[C@]2(C)/C(=N/NC(=O)c3ccncc3)CC[C@@H]12`, in [4], the “inhibition (INH)” value was above 95%.
Take `COc1nc2ccc(Cl)cc2cc1C1C(Cl)C(=O)N1NC(=O)c1ccncc1` (stereo not drawn): the MIC in experiment [5] was 3.12 to 6.25 µg/mL.
In turn, `O=C(NN1C(=O)C(Cl)C1c1cc2ccccc2nc1Cl)c1ccncc1` (stereo not drawn) returned an MIC in experiment [5] of 12.5 µg/mL.
`C=C1C[C@]23CC[C@@H]4[C@](C)(CCC[C@@]4(C)C(=O)O)[C@H]2CC[C@]1(O[C@@H]1O[C@H](CO)[C@@H](O)[C@H](O)[C@H]1O[C@@H]1O[C@H](CO)[C@@H](O)[C@H](O)[C@H]1O)C3` came in with a minimum inhibitory concentration (MIC) in [6] of 3.75 to 5 µg/mL (≈ 5.83 to 7.78 µM).
Consider `O=C(NN1C(=O)C(Cl)C1c1ccccc1O)c1ccncc1` (stereo not drawn), for which it took 0.62 µg/mL (≈ 1.95 µM) to inhibit growth in experiment [1] (MIC).
In [1], `COc1cc(C2SCC(=O)N2NC(=O)c2ccccc2)ccc1O` (stereo not drawn) registered an MIC of 0.31 µg/mL (≈ 0.9 µM).
For orientation: IC50 means the concentration at which inhibition is half-maximal. The low end stands for greater potency in that assay, the high end for weaker potency in that assay. With `COc1c(N2CCN(CN3C(=O)/C(=N\NC(=O)c4ccncc4)c4ccccc43)C(C)C2)c(F)cc2c(=O)c(C(=O)O)cn(C3CC3)c12` (stereo not drawn), it took 0.2 µg/mL to inhibit growth in experiment [5] (MIC). Moreover, in experiment [7], the IC50 amounted to 4 µg/mL (≈ 6.12 µM).
On to `COc1c(N2CCNC(C)C2)c(F)cc2c(=O)c(C(=O)O)cn(C3CC3)c12` (stereo not drawn) [GATIFLOXACIN], for which, in experiment [5], 3.12 µg/mL was the least that counted as inhibitory (MIC).
Regarding `NNC(=O)c1ccncc1` [ISONIAZID], in [8], the Activity is on record as 5.34 log10CFU. The MIC is 4 to 8 µg/mL (≈ 29.2 to 58.3 µM) in [9]; 4 to 8 µg/mL (≈ 29.2 to 58.3 µM) in experiment [10]; 4 to 8 µg/mL (≈ 29.2 to 58.3 µM) in experiment [11]; 0.2 µg/mL (≈ 1.46 µM) in experiment [1]; 1.4 µg/mL (≈ 10.2 µM) in experiment [2]; 1.4 µg/mL (≈ 10.2 µM) in [3]. Moreover, the MIC was 0.025 to 0.05 µg/mL (≈ 0.182 to 0.365 µM) in [12]; 0.015 to 0.06 µg/mL (≈ 0.109 to 0.438 µM) in experiment [13]; 0.1 µg/mL (≈ 0.729 µM) in [6]; 0.05 µg/mL (≈ 0.365 µM) in experiment [14]; 1.45 µM in [5]; 0.015 to 0.06 µg/mL (≈ 0.109 to 0.438 µM) in experiment [16]. In [15], the “growth inhibition (GI)” value came to 95%.
In the case of `Cc1ccc2nc(Cl)c(C3C(Cl)C(=O)N3NC(=O)c3ccncc3)cc2c1` (stereo not drawn), the MIC in [5] was found to be 12.5 µg/mL.
Same read-out and setting: the result for `COc1ccc(/C=C2\SC(=O)N(CNNC(=O)c3ccncc3)C2=O)cc1` reads 50 to 100 µg/mL.
As for `C[C@]12CC[C@H]3[C@@](CC[C@@H]4[C@]3(C)CCC[C@@]4(C)C(=O)O)(CC1=O)C2`, in experiment [6], the MIC amounted to 50 µg/mL (≈ 157 µM).
Consider `COc1nc2ccc(C)cc2cc1C1C(Cl)C(=O)N1NC(=O)c1ccncc1` (stereo not drawn), for which, in experiment [5], the MIC is 3.12 to 6.25 µg/mL.
For the compound `Cc1c(C(=O)NNC(=O)c2ccncc2)nn(-c2ccc(Cl)cc2Cl)c1-c1ccccc1`, the lowest concentration to inhibit growth in [14] (MIC) was 25 µg/mL (≈ 53.6 µM). In addition, the Ratio in experiment [17] is given as 4.
Regarding `C[C@]12CC/C(=N\NC(=O)c3ccncc3)C=C1CC[C@@H]1[C@@H]2CC[C@]2(C)/C(=N/NC(=O)c3ccncc3)CC[C@@H]12`, the “inhibition (INH)” value in experiment [4] was above 95%.
In [1], `O=C(NN1C(=O)C(Cl)C1c1ccc([N+](=O)[O-])cc1)c1ccncc1` (stereo not drawn) gave an MIC of 5 µg/mL (≈ 14.4 µM).
On the same count and under the same terms, the result for `O=C(NN1C(=O)C(Cl)C1c1ccco1)c1ccncc1` (stereo not drawn) reads 1.25 µg/mL (≈ 4.29 µM); that for `COc1ccc(C2C(Cl)C(=O)N2NC(=O)c2ccncc2)cc1` (stereo not drawn), 0.31 to 5 µg/mL (≈ 0.934 to 15.1 µM).
As to `C[C@]12CC[C@@H](O)C[C@@H]1CC[C@@H]1[C@@H]2CC[C@]2(C)/C(=N/NC(=O)c3ccncc3)CC[C@@H]12`, the MIC (against Mycobacterium kansasii; with Mycobacterium avium; in [18]; in experiment [19]; in experiment [20]; against Mycolicibacterium phlei) was 3.5 to 1000 µg/mL (≈ 8.55 to 2440 µM) throughout.
On to `C=C1C[C@]23CC[C@@H]4[C@](C)(CCC[C@@]4(C)C(=O)NNc4ccncc4)[C@H]2CC[C@]1(O[C@@H]1O[C@H](COC(C)=O)[C@@H](OC(C)=O)[C@H](OC(C)=O)[C@H]1O[C@@H]1O[C@H](COC(C)=O)[C@@H](OC(C)=O)[C@H](OC(C)=O)[C@H]1O)C3`, for which the MIC in [6] was determined as 5 µg/mL (≈ 5.07 µM).
